In one assay the target is TRX-eAPP575-624 (Homo sapiens (Human), UniProt P05067). Nature of the assay: SPR (Biacore) binding to APP ectodomain fragment. On the procedure:
The binding affinity of the compounds for the ectodomain of APP was determined using SPR. […] The eAPP was crosslinked linked to the CM5 Biacore chips (GE Healthcare).
FC1 served as a reference cell following a mock immobilization with buffer alone. For all cells, the flow rate was 10 al per min. The chip was blocked with 1M ethanolamine (pH 8.5). […] Binding traces were recorded for each dilution with a binding phase of 60 seconds and a dissociation phase of 240 seconds. Each cycle was performed at 20° C. with a constant flow rate of 20 l/min. An additional 240 seconds of buffer flow at 60 al per min across the cells was applied as a regeneration phase to facilitate complete dissociation of the compound from the protein. The sensograms were obtained by subtraction of the reference and buffer signals using the Biacore T100 Evaluation software. The binding curves were modeled with the PRISM (Graphpad Inc).
Background: In SPR one partner is held on a chip, and binding of the other changes the refractive index at the surface.

A further assay concerns sAPP alpha. Nature of the assay: Secondary screen: sAPP alpha. The assay is classed as cell-based. The conditions noted are these: for sAPP alpha: increase (↑); for sAPP (α/β): increase (↑) of ratio.
A further assay deals with sAPP beta. Description: Secondary screen: sAPP beta. The format is cell-based. The conditions noted are these: decrease (↓).
Another assay relates to Aβ1-42. Nature of the assay: Aβ1-42 ELISA in SH-SY5Y neuroblastoma cells. The format is cell-based, human. Conditions: for IC50: Homo sapiens, SH-SY5Y, secondary screen. On the procedure:
SH-SY5Y neuroblastoma cells were seeded at 50,000 cells/well in a 96 wells plate for 24 h. Then their medium was changed for fresh medium supplemented with desired concentration of the hydantoin compound (e.g. compound 3). After 24 h, 20 al of the medium was added to 2 al of the complete protease inhibitor with 1 μM EDTA and kept at 4° C. until analysis using the ELISA assay below.
ELISA kits from Invitrogen were also used to quantify Aβ1-42 (KHB3544) in duplicate. For the Aβ 1-42 ultrasensitive ELISA, samples were diluted 1:2 (50 al CSF plus 50 μl kit-provided standard diluent buffer). Assays were performed according to manufacturer's instructions. In short, standards and samples were added to a plate pre-coated with a monoclonal capture antibody specific for the amino terminus of Hu Aβ. The samples were co-incubated with a rabbit detection antibody (Ab) specific for the carboxy terminus of the Aβ species being assayed for 3 hr at room temperature overnight at 4° (Aβ 1-42) with gentle rocking. After washing, bound rabbit Ab was detected using a horseradish peroxidase-labeled anti-rabbit secondary Ab. After washing again, bound HRP-anti rabbit Ab was detected colorimetrically (Spectramax 190, Molecular Devices) by the addition of a substrate solution. 1 mM 4-(2-Aminoethyl) benzenesulfonyl fluoride hydrochloride (AEBSF) protease inhibitor (101500, Calbiochem) was added to standards and samples.
In general terms: An ELISA detects its analyte on a solid surface through an enzyme-linked reagent.

Another assay deals with Aβ42. Nature of the assay: Aβ lowering in NTg mice. The format is in vivo. The conditions noted are these: 1 mpk. On the procedure:
Compound 2 and other hydantoins were produced (see, e.g., compounds 1-5 pharmacokinetic evaluation of these hydantoins was determined in brain uptake assays using NTg mice (see, e.g., Table 1). It was also determined that Compound 1 lowered Aβ42 in the same animals at 5 mpk, while compound 3 lowered Aβ at 1 mpk.

The next assay concerns the target NRG1-BACE1 (Homo sapiens (Human), UniProt P56817). Description: NRG1-BACE cleavage in transfected HEK 293 cells (SEAP/lacZ). The assay is classed as cell-based. On the procedure:
(§1) Briefly, in order to determine the PSGL-1-BACE1 IC50 IC50 HEK 293 cells were plated in 24 well plates and transiently cotransfected with either PSGL1/lacZ or NRG1/lacZ constructs using Lipofectamine 2000; manufacturer protocol was followed. Two hours after adding the DNA-lipid complex to the cells a BACE inhibitor was added to each well, then cells were incubated overnight at 37° C. and 5% CO2. Cultured medium was collected to determine NRG1 or PSGL1, and cells were lysed to measure lacZ levels. Sigma SEAP kit standard protocol was conducted on the cultured medium to detect levels of PSGL1 or NRG1. Promega kit instructions were followed to determine lacZ concentration. The ratio of PSGL1/lacz vs [BACE inhibitor] or were plotted to determine the BACE1-IC50 on each of the substrate using GraphPad Prism 5 (FIG. 6B).

The target of a further assay is PSGL-1-BACE1 (Homo sapiens (Human), UniProt P56817). Description: PSGL1-BACE cleavage in transfected HEK 293 cells (SEAP/lacZ). The format is cell-based. Conditions: APP-BACE vs PSGL1-BACE cleavage. On the procedure: as §1

Structures are written as SMILES. Read-outs that look alike come from different tables or passages of the source.

Chain of NRG1-BACE1 (P56817 46-501): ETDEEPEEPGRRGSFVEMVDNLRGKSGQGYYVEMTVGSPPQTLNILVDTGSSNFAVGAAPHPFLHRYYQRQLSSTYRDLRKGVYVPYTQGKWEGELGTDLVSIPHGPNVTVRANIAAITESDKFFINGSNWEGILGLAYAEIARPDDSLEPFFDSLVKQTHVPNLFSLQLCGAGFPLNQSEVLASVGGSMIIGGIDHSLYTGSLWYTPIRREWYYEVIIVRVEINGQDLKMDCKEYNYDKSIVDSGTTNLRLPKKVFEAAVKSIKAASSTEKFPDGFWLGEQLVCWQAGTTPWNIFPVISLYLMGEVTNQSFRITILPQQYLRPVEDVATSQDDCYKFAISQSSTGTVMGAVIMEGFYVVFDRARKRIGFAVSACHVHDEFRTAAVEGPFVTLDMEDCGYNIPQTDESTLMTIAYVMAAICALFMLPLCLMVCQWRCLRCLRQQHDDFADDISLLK
Chain of TRX-eAPP575-624 (P05067 650-699): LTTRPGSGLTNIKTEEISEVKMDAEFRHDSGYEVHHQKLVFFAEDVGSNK
Chain of PSGL-1-BACE1 (P56817 46-501): as the sequence (P56817 46-501) above

Take `CN1C(=O)C(c2ccccc2)(c2cc(F)cc(F)c2)N=C1N` (stereo not drawn) [FAH-1]: the Kd at TRX-eAPP575-624 amounted to 5000 nM.

For `Cc1cc(C2(c3cc(F)cc(F)c3)N=C(N)N(C)C2=O)ccc1OC(F)F` (stereo not drawn) [FAH-3, 2-amino-4-(4-(difluoromethoxy)-3-methylphenyl)-4-(3,5-difluorophenyl)-1-methyl-1H-imidazol-5(4H)-one], the Kd on TRX-eAPP575-624 (Table 1, SPR, read-out: APP binding Kd) is 300 nM. Also, in the assay with sAPP alpha, the sAPP alpha result is recorded as “↑ > 10%” and the “sAPP (α/β)” value was “↑≈10%”. The sAPP beta entry in the assay on sAPP beta is given as “↓ < 20%”. For the same compound, the IC50 (commonly the concentration at which inhibition is half-maximal) in the assay with Aβ1-42 was more than 1000 nM. Moreover, in the assay with Aβ1-42 (SH-SY5Y cells), the “Inhibition of Aβ / Aβ42 production” value is listed as “inhibition of Aβ production”. The “Aβ lowering in vivo” value with Aβ42 is given as “lowered Aβ”.

With `Cc1cc(C2(c3cccc(F)c3)N=C(N)N(C)C2=O)ccc1OC(F)F` (stereo not drawn) [FAH-17, 2-amino-4-(4-(difluoromethoxy)-3-methylphenyl)-4-(3-fluorophenyl)-1-methyl-1H-imidazol-5(4H)-one], in the assay with sAPP alpha, the sAPP alpha result is reported as “↑ > 20%”. For the same compound, the “sAPP (α/β)” value in the assay on sAPP alpha is listed as “↑ > 100%”. The sAPP beta entry with sAPP beta was “↓ < 50%”. Also, the half-inhibitory concentration (IC50) in the assay with Aβ1-42 is more than 1000 nM; at NRG1-BACE1 (secondary screen, read-out: NRG1-BACD1 IC50), more than 1000 nM. Further, the “Selectivity for APP over NRG1” value at NRG1-BACE1 (APP-BACE vs NRG1-BACE cleavage) is on record as more than 10 fold. Moreover, the “Selectivity for APP over PSGL1” value on PSGL-1-BACE1 is more than 200 fold.

For `Cc1cc(F)cc(C2(c3ccc(OC(F)F)c(C)c3)N=C(N)N(C)C2=O)c1` (stereo not drawn) [FAH-22, 2-amino-4-(4-(difluoromethoxy)-3-methylphenyl)-4-(3-fluoro-5-methylphenyl)-1-methyl-1H-imidazol-5(4H)-one], in the assay on sAPP alpha, the sAPP alpha entry was “↑ > 10%” and the “sAPP (α/β)” value is “↑≈50%”. For the same compound, the sAPP beta result in the assay on sAPP beta is reported as “↓ < 20%”.

On to `Cc1cc(C2(c3cccc(Cl)c3)N=C(N)N(C)C2=O)ccc1OC(F)F` (stereo not drawn) [FAH-23, 2-amino-4-(3-chlorophenyl)-4-(4-(difluoromethoxy)-3-methylphenyl)-1-methyl-1H-imidazol-5(4H)-one], for which, in the assay with sAPP alpha, the sAPP alpha entry is recorded as “↑ > 20%” and the “sAPP (α/β)” value is reported as “↑ > 50%”. The sAPP beta result in the assay on sAPP beta is “↓ < 20%”.

Consider `Cc1cccc(C2(c3ccc(OC(F)F)c(C)c3)N=C(N)N(C)C2=O)c1` (stereo not drawn) [FAH-27, 2-amino-4-(4-(difluoromethoxy)-3-methylphenyl)-1-methyl-4-(m-tolyl)-1H-imidazol-5(4H)-one], for which, in the assay with sAPP alpha, the sAPP alpha entry was “↑ > 30%” and the “sAPP (α/β)” value is reported as “↑ > 100%”. Further, in the assay with sAPP beta, the sAPP beta result is “↓ < 30%”.

With `Cc1cc(C2(c3cccc(C(F)(F)F)c3)N=C(N)N(C)C2=O)ccc1OC(F)F` (stereo not drawn) [FAH-28], in the assay on sAPP alpha, the sAPP alpha entry is given as “↑ > 20%” and the “sAPP (α/β)” value is “↑ > 50%”. In addition, the sAPP beta result in the assay on sAPP beta was “↓ < 20%”.

The record behind these values is patent US11091444B2, “Hydantoins that modulate BACE-mediated app processing” (BUCK INSTITUTE FOR RESEARCH ON AGING, priority 2013, dated 2021).
